# In US9145393B2, “Arylpyridinone ITK inhibitors for treating inflammation and cancer” (Confluence Life Sciences, Inc., priority 2014, dated 2015):
# Where a name gives a salt, the structure may show the parent alone.
# Molecular target: T1, ITK (Homo sapiens, UniProt Q08881)
# T1 sequence (Q08881 1-620): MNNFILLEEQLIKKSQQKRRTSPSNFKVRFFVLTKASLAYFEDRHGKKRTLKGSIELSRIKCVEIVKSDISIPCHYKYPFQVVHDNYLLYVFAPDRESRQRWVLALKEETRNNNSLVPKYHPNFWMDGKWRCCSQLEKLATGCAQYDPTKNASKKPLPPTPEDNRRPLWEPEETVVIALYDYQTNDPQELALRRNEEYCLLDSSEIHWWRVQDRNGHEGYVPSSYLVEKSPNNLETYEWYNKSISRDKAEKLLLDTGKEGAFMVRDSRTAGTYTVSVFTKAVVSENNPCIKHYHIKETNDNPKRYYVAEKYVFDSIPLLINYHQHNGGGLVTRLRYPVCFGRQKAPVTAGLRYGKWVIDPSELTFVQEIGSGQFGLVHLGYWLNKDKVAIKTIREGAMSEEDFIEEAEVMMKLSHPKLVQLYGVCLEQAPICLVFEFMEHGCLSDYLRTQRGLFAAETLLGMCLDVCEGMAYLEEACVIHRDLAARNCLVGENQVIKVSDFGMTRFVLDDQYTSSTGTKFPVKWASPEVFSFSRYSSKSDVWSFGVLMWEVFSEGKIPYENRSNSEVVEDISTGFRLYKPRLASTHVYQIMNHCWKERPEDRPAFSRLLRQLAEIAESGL
# Test: ITK inhibitor binding potency (LanthaScreen TR-FRET competitive binding assay)
# Settings: pre-incubation condition not stated; read-out: ITK Inhibition IC50
# Source text: The ability of candidate compounds to interact with ITK is quantitated by a competitive binding assay using the LanthaScreen technology developed by Life Technologies. This assay is based on the binding of a proprietary, Alexa Fluor® 647-labeled, ATP-competitive kinase inhibitor (kinase tracer-236) to the ITK expression construct in the presence of a Europium-conjugated antibody, resulting in a FRET (fluorescence resonance energy transfer) signal. Displacement of the kinase tracer by compound results in a lower emission ratio upon excitation of the Europium chelate. Candidate compounds are designed as potential irreversible inhibitors of ITK, capable of ligating to an active site cysteine residue resulting in time dependent covalent binding. The time dependent nature of irreversible inhibition is investigated by performing the binding assay with and without a pre-incubation of compound and ITK. […] The inhibitory potency of candidate compounds is measured in 20 mM HEPES pH 7.5, 10 mM MgCl2, 0.01% BSA, 0.0005% Tween-20, and 2% DMSO in the presence of 10 nM ITK, 2 nM Eu-anti-GST antibody, and 50 nM kinase tracer-236 using a 384-well plate format. Background signal is defined in the absence of ITK and uninhibited signal is defined in the presence of vehicle (2% DMSO) alone. Compounds were evaluated in an 11-point dose-response ranging from 20 uM to 0.34 nM. The binding assays are performed under two preincubation Conditions to evaluate time dependence of inhibition. For the pre-incubation assay, ITK and Eu-anti-GST antibody are pre-incubated with compound or vehicle for two hours prior to the addition of kinase tracer. The non-preincubated assay is run under Conditions where ITK and Eu-anti-GST antibody are added to a mixture of compound and kinase tracer. IC50 values of compounds are determined using a 4 parameter logistical fit of emission ratio as a function of the concentration of compound.
row,Structure (SMILES),IC50
1,"O=C(CCl)N1CCC[C@@H](Nc2cc(-c3ccncc3)c[nH]c2=O)C1 [Example 1, (R)-5-((1-(2-Chloroacetyl)piperidin-3-yl)amino)-[3,4′-bipyridin]-6(1H)-one]",≤ 1 µM
2,"C=CC(=O)N1CCC[C@@H](Nc2cc(-c3ccncc3)c[nH]c2=O)C1 [Example 2, (R)-5-((1-Acryloylpiperidin-3-yl)amino)-[3,4′-bipyridin]-6(1H)-one]",> 1 µM
3,"C=CC(=O)N1CC(Nc2cc(-c3ccncc3)c[nH]c2=O)C1 [Example 5, 5-((1-Acryloylazetidin-3-yl)amino)-[3,4′-bipyridin]-6(1H)-one]",≤ 1 µM
4,"C/C=C/C(=O)N1CC(Nc2cc(-c3ccncc3)c[nH]c2=O)C1 [Example 6, (E)-5-((1-(But-2-enoyl)azetidin-3-yl)amino)-[3,4′-bipyridin]-6(1H)-one]",> 1 µM
5,"C=CC(=O)N1CC(Nc2cc(-c3ccnc(C)c3)c[nH]c2=O)C1 [Example 7, 5-((1-acryloylazetidin-3-yl)amino)-2′-methyl-[3,4′-bipyridin]-6(1H)-one]",≤ 1 µM
6,"C=CC(=O)N1CC(Nc2cc(-c3ccnc(NC)c3)c[nH]c2=O)C1 [Example 9, 5-((1-acryloylazetidin-3-yl)amino)-2′-(methylamino)-[3,4′-bipyridin]-6(1H)-one]",≤ 1 µM
7,"C=CC(=O)N1CC(Nc2cc(-c3cncc(NC)n3)c[nH]c2=O)C1 [Example 11, 3-((1-acryloylazetidin-3-yl)amino)-5-(6-(methylamino)pyrazin-2-yl) pyridin-2(1H)-one]",≤ 1 µM
8,"CNC/C=C/C(=O)N1CC(Nc2cc(-c3ccncc3)c[nH]c2=O)C1 [Example 13, (E)-5-((1-(4-(methylamino)but-2-enoyl)azetidin-3-yl)amino)-[3,4′-bipyridin]-6(1H)-one]",≤ 1 µM
9,"CNc1cc(-c2c[nH]c(=O)c(NC3CN(C(=O)/C=C/c4ccccc4)C3)c2)ccn1 [Example 14, (E)-5-((1-Cinnamoylazetidin-3-yl)amino)-2′-(methylamino)-[3,4′-bipyridin]-6(1H)-one]",> 1 µM
10,"CNc1cc(-c2c[nH]c(=O)c(NC3CN(C(=O)/C=C/Cc4ccccc4)C3)c2)ccn1 [Example 15, (E)-2′-(Methylamino)-5-((1-(4-phenylbut-2-enoyl)azetidin-3-yl)amino)-[3,4′-bipyridin]-6(1H)-one]",> 1 µM
11,"Cc1cc(NC(=O)c2cc(-c3c[nH]c(=O)c(NC4CN(C(=O)CCl)C4)c3)ccn2)ccc1C(C)C [Example 17, 5-((1-(2-Chloroacetyl)azetidin-3-yl)amino)-N-(4-isopropyl-3-methylphenyl)-6-oxo-1,6-dihydro-[3,4′-bipyridine]-2′-carboxamide formate]",> 1 µM
12,"CNc1cc(-c2c[nH]c(=O)c(NC3CN(C(=O)/C=C/CCOc4ccccc4)C3)c2)ccn1 [Example 20, (E)-2′-(Methylamino)-5-((1-(5-phenoxypent-2-enoyl)azetidin-3-yl)amino)-[3,4′-bipyridin]-6(1H)-one]",≤ 1 µM

# Next, values leading:
row,IC50,Structure (SMILES)
1,> 1 µM,"C=CC(=O)N1CC[C@@H](Nc2cc(-c3ccncc3)c[nH]c2=O)C1 [Example 3, (R)-5-((1-Acryloylpyrrolidin-3-yl)amino)-[3,4′-bipyridin]-6(1H)-one]"
2,≤ 1 µM,"O=C(CCl)N1CC(Nc2cc(-c3ccncc3)c[nH]c2=O)C1 [Example 4, 5-((1-(2-Chloroacetyl)azetidin-3-yl)amino)-[3,4′-bipyridin]-6(1H)-one]"
3,≤ 1 µM,"C=CC(=O)N1CC(Nc2cc(-c3cncc(OC)n3)c[nH]c2=O)C1 [Example 8, 3-((1-acryloylazetidin-3-yl)amino)-5-(6-methoxypyrazin-2-yl) pyridin-2(1H)-one]"
4,≤ 1 µM,"C=CC(=O)N1CC(Nc2cc(-c3ccnc(NC)n3)c[nH]c2=O)C1 [Example 10, 3-((1-acryloylazetidin-3-yl)amino)-5-(2-(methylamino)pyrimidin-4-yl)pyridin-2(1H)-one]"
5,> 1 µM,"CNC(=O)/C=C/C(=O)N1CC(Nc2cc(-c3ccncc3)c[nH]c2=O)C1 [Example 12, (E)-N-methyl-4-oxo-4-(3-((6-oxo-1,6-dihydro-[3,4′-bipyridin]-5-yl)amino)azetidin-l-yl)but-2-enamide]"
6,≤ 1 µM,"C=CC(=O)N1CC(Nc2cc(-c3ccnc(C(=O)Nc4ccc(C(C)C)c(C)c4)c3)c[nH]c2=O)C1 [Example 16, 5-((1-Acryloylazetidin-3-yl)amino)-N-(4-isopropyl-3-methylphenyl)-6-oxo-1,6-dihydro-[3,4′-bipyridine]-2′-carboxamide hydrochloride]"
7,≤ 1 µM,"CC/C=C/C(=O)N1CC(Nc2cc(-c3ccnc(NC)c3)c[nH]c2=O)C1 [Example 18, (E)-2′-(Methylamino)-5-((1-(pent-2-enoyl)azetidin-3-yl)amino)-[3,4′-bipyridin]-6(1H)-one]"
8,≤ 1 µM,"CNc1cc(-c2c[nH]c(=O)c(NC3CN(C(=O)/C=C/CN(C)C)C3)c2)ccn1 [Example 19, (E)-5-((1-(4-(Dimethylamino)but-2-enoyl)azetidin-3-yl)amino)-2′-(methylamino)-[3,4′-bipyridin]-6(1H)-one]"

# Test system: ITK mediated IL-2 release in Jurkat cells
# Test: ITK IL-2 release assay in CD3/CD28-stimulated Jurkat cells
# Type: cell-based
# Settings: Homo sapiens, CD3/CD28 Dynabeads stimulation, overnight, read-out: IL-2 Production Inhibition IC50
# Method: This assay was based on the ability of a compound to inhibit ITK mediated IL-2 release. Jurkat cells were placed in wells of a 96-well plate at 500,000 per well in 120 μL medium (same as above). Compounds were added as 15 μL per well of 10× working stock solutions in medium with 1% DMSO (or medium with 1% DMSO for Controls) and placed in a 37° C. incubator for 2 hours. Stimulation used CD3/CD28 Dynabeads to activate the T cell receptor and mimic antigen-presenting cells. Beads were added at a ratio of 1 bead per cell, in 15 μL medium (or medium alone for unstimulated Control). After overnight incubation, the plates were centrifuged at 290×g for 5 min, then 100 μL per well of supernatant medium removed for IL-2 cytokine assay. To determine cell viability, to the remaining well Contents 50 μL of CellTiter-Glo reagent was added and luminescence determined. The IL-2 cytokine assay utilized an electochemiluminescence-based ELISA.
row,Structure (SMILES),IC50
1,"C=CC(=O)N1CC(Nc2cc(-c3ccnc(NC)c3)c[nH]c2=O)C1 [Example 9, 5-((1-acryloylazetidin-3-yl)amino)-2′-(methylamino)-[3,4′-bipyridin]-6(1H)-one]",≤ 1 µM
2,"C=CC(=O)N1CC(Nc2cc(-c3ccnc(NC)n3)c[nH]c2=O)C1 [Example 10, 3-((1-acryloylazetidin-3-yl)amino)-5-(2-(methylamino)pyrimidin-4-yl)pyridin-2(1H)-one]",≤ 1 µM
3,"C=CC(=O)N1CC(Nc2cc(-c3cncc(NC)n3)c[nH]c2=O)C1 [Example 11, 3-((1-acryloylazetidin-3-yl)amino)-5-(6-(methylamino)pyrazin-2-yl) pyridin-2(1H)-one]",≤ 1 µM
